Columns and labels:
[1] = molecular target: hFASN enzyme (full length) (Homo sapiens (Human), UniProt P49327); assay: Fatty Acid Synthase (FASN) Inhibition Scintillation Proximity Assay; format: biochemical; conditions: 3H-acetyl-CoA and malonyl-CoA substrates, SPA, mean if tested more than once
Outline: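 Full-length human FASN (300 ng, in-house purified) in 100 mM KH2PO4 pH 7.5, 1 mM DTT converts 3H-acetyl-CoA plus malonyl-CoA to hydrophobic 3H-palmitate, captured by streptavidin imaging beads and read on LEADseeker at 610 nm after ≥24 h. Compounds tested 0.01–30 μM; data normalized to plate controls and fitted to 4-parameter logistic curves.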

[2] = molecular target: FASN Keto-reductase Domain (hFASN enzyme, full length) (Homo sapiens (Human), UniProt P49327); assay: Fatty Acid Synthase Keto-reductase Domain (FASN KR) Inhibition; format: biochemical; conditions: NADPH oxidation at 340 nm, ethyl acetoacetate substrate
Chain of FASN Keto-reductase Domain (hFASN enzyme, full length) (P49327 whole entry, the tested form may be a part): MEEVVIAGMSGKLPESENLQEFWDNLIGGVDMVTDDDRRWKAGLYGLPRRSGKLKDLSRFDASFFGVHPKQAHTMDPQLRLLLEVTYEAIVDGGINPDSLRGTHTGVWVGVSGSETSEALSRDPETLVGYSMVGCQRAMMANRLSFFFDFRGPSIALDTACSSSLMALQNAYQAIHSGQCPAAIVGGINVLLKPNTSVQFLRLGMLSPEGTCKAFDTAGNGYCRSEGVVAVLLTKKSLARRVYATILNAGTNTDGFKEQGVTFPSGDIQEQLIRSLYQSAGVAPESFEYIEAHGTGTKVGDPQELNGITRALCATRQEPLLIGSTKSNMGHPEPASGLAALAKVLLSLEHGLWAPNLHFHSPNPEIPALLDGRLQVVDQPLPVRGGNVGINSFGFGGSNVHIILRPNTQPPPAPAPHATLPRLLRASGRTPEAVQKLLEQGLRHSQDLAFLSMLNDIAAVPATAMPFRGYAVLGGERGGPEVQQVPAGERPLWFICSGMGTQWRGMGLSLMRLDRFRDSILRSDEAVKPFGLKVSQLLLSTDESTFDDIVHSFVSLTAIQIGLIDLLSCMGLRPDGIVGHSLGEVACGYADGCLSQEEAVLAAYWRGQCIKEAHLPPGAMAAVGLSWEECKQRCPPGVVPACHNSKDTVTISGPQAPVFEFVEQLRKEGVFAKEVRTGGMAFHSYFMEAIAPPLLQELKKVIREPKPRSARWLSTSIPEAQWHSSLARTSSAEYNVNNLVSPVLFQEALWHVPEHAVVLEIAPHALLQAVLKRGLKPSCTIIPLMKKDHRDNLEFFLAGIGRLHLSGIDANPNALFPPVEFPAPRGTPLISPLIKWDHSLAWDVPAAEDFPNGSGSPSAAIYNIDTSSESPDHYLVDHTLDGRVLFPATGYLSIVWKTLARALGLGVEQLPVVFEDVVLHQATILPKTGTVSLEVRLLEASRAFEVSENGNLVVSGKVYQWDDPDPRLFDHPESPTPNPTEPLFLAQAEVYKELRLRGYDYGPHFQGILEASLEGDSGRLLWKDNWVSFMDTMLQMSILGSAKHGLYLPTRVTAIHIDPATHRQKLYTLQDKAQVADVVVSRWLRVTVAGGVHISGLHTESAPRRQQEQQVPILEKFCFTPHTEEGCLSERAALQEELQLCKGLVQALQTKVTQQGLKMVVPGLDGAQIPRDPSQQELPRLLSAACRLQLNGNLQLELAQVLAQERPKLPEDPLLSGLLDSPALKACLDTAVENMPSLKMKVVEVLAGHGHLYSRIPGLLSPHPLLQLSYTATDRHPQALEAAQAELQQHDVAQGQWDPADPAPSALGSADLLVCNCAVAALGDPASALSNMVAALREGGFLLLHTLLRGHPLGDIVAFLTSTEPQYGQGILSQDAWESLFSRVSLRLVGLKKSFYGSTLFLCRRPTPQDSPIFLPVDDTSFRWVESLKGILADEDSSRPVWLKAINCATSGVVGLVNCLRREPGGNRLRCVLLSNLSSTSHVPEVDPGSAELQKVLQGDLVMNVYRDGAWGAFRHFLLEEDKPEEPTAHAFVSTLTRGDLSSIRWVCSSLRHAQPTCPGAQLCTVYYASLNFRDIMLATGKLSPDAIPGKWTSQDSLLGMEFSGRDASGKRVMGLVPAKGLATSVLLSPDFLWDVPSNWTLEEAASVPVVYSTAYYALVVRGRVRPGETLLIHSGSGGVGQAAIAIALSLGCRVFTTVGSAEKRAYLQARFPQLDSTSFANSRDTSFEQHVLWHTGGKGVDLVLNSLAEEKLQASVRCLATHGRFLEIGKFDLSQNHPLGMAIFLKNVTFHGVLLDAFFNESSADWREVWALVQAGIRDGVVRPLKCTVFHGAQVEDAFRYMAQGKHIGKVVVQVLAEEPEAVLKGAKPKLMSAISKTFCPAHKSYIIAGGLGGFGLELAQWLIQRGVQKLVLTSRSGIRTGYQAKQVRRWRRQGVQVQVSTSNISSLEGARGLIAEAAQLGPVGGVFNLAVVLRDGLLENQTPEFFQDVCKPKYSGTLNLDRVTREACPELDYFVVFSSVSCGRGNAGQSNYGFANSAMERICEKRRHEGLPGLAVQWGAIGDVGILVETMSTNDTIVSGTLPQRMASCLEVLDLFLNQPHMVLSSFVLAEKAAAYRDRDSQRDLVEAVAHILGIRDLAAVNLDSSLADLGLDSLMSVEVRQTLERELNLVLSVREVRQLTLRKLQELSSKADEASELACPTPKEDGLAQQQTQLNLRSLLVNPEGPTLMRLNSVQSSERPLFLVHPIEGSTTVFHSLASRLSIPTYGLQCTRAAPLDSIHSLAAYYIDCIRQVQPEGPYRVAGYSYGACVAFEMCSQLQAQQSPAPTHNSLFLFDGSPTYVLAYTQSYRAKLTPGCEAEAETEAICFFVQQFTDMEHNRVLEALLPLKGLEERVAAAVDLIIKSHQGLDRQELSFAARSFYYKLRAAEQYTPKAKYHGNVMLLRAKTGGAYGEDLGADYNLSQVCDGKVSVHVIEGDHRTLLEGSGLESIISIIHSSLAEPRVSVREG
Outline: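 Absorbance was read before (T1) and after 20 min incubation at room temperature (T2), with the decrease T1−T2 as signal. Data were normalized to plate high and low controls as % Controlmin; IC50 came from a 4-parameter logistic fit of Controlmin versus compound concentration.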

[3] = tested on: LNCaP_Vancouver prostate cells; assay: In Vitro LNCaP Vancouver Prostate Cell Proliferation Assay in Lipid Reduced Medium; format: cell-based; conditions: 96 h, 10% lipid reduced serum, ATP-glow
Protocol: LNCaP_Vancouver prostate cells were obtained from the Vancouver Prostate Cancer Centre.
(§1) Compounds were tested in duplicate. After 96 h incubation at 37° C., 5% CO2 25 μl ATP-glow mix was added. The plate was incubated for 30 min at 37° C. and luminescence was measured with the Envision.
(§2) pIC50 values were calculated as follows. Raw data generated by the instruments were normalized to % Controlmin values, which were calculated as: % Controlmin=100*(x−mLC)/(mHC−mLC),
(§3) where mLC and mHC are the means of the low control wells and high control wells on the plate, after manual exclusion of outliers. The relation between the % Controlmin values and concentration was fitted to a 4-parameter logistic curve using a non-linear least squares regression method to determine the pIC50 value. Outlying data points were excluded manually to get a correct fit. […] The IC50 parameter was always determined by non-linear regression, but one or more of the other parameters may have been held fixed on a relevant input value, such as 0 for the bottom values.

[4] = tested on: PC-3M-Luc-C6 prostate cells; assay: In Vitro PC-3M-Luc-C6 Prostate Cell Proliferation Assay in Lipid Reduced Medium; format: cell-based; conditions: 96 h
Protocol: PC-3M-Luc-C6 prostate cells were obtained from Xenogen Corporation. […] The cells were passaged twice a week.
as §1, with “The next day 10 μl test compound/DMSO diluted in medium was added (3E-5M, 1E-5M, 3E-6M, 1E-6M, 3E-7M, 1E-7M, 3E-8M, 1E-8M final concentration). Compounds” for “Compounds”
as §2, §3

A2780 ovarian cells [5] = assay: A2780 Ovarian Cell Proliferation Assay in Lipid Reduced Medium, with Palmitate; format: cell-based; conditions: 10% lipid-reduced serum, 25 μM palmitate, 96 h, MTT; for IC50: Homo sapiens, read-out: pIC50 With Palmitate (converted)
Protocol: (§4) The biological assays described below correspond to comparative assays for ovarian cell proliferation.
2500 cells were seeded in a 96-well clear well plate in 200 μL RPM11640 with 10% Fetal Calf Serum (Hyclone), and incubated at 37° C., 5% CO2. Blanks were wells without cells. The next day the culture medium was aspirated and replaced by 160 μL culture medium with 10% Lipid-Reduced Serum (LRS, Hyclone). […] After 96 h incubation, an MTT assay was performed.

A2780 ovarian cells [6] = assay: A2780 Ovarian Cell Proliferation Assay in Lipid Reduced Medium, without Palmitate; format: cell-based; conditions: 10% lipid-reduced serum, no palmitate, 96 h, MTT
Protocol: as §4
2500 cells were seeded in a 96-well clear well plate in 200 μL RPM11640 with 10% Fetal Calf Serum (Hyclone), and incubated at 37° C., 5% CO2. Blanks were wells without cells. The next day the culture medium was aspirated and replaced by 160 μL culture medium with 10% Lipid-Reduced Serum (LRS, Hyclone). 20 μL test compound (at concentrations of 30 μM, 10 μM, 3 μM, 1 μM, 0.30 μM, 0.10 μM, 0.03 μM and 0.01 μM)/DMSO dilution followed by 20 μL ethanol-BSA solution were added to a final concentrations of 0.2% DMSO, 0.2% fatty-acid-free BSA, 0.25% ethanol. After 96 h incubation an MTT assay was performed.
Raw data generated by the instrument were normalized to % Controlmin values, which were calculated as: % Controlmin=100*(x−mLC)/(mHC−mLC)
where mLC and mHC were the means of the low control wells and high control wells on the plate, after manual exclusion of outliers. A plot of Controlmin versus test compound concentration was fitted to a 4-parameter logistic curve using a non-linear least squares regression method.

Chain of hFASN enzyme (full length) (P49327 whole entry): as the sequence (P49327 whole entry, the tested form may be a part) above

Compound	Human FASN pIC50 [1]	FASN Keto-reductase Domain pIC50 [2]	IC50 (A2780 ovarian cells [5])	other results
CC1(C)N=C(c2ccc(-c3ccc4cncnc4c3)cc2F)N(CC2CN(C(=O)C3CC3)C2)C1=O [Compound 43, 1-((1-(cyclopropanecarbonyl)azetidin-3-yl)methyl)-2-(2-fluoro-4-(quinazolin-7-yl)phenyl)-4,4-dimethyl-1H-imidazol-5(4H)-one]	6.11	5.93	–	IC50 ([3]; Prostate cell, read-out: pIC50 LNCaP_Vancouver prostate cell (converted)): 2340 nM; IC50 ([4]; Prostate cell, read-out: pIC50 PC-3M-Luc-C6 prostate cell, 10% lipid reduced serum, 96 h, ATP-glow (converted)): 871 nM
CC1(C)N=C(c2ccc(-c3ccc4cnccc4c3)cc2F)N(C[C@@H]2CCN(C(=O)C3CC3)C2)C1=O [Compound 68, (R)-1-((1-(cyclopropanecarbonyl)pyrrolidin-3-yl)methyl)-2-(2-fluoro-4-(isoquinolin-6-yl)phenyl)-4,4-dimethyl-1H-imidazol-5(4H)-one]	7.26	7.32	> 10000 nM	–
Cn1ncc2cc(-c3ccc(C4=NC(C)(C)C(=O)N4CC4CN(C(=O)C5CC5)C4)c(F)c3)ccc21 [Compound 69, 1-((1-(cyclopropanecarbonyl)azetidin-3-yl)methyl)-2-(2-fluoro-4-(1-methyl-1H-indazol-5-yl)phenyl)-4,4-dimethyl-1H-imidazol-5(4H)-one]	–	–	–	pIC50 With Palmitate (A2780 ovarian cells [5]): <5; pIC50 Without Palmitate (A2780 ovarian cells [6]): 7.19; pIC50 LNCaP_Vancouver prostate cell [3]: 6.87; pIC50 PC-3M-Luc-C6 prostate cell ([4]; 10% lipid reduced serum, ATP-glow): 7.04
Cc1cc(-c2ccc(-c3cnn(C)c3)cc2)ccc1C1=NC(C)(C)C(=O)N1CC1CN(C(=O)C2(C)CC2)C1 [Compound 87, 4,4-dimethyl-2-(3-methyl-4′-(1-methyl-1H-pyrazol-4-yl)-[1,1′-biphenyl]-4-yl)-1-((1-(1-methylcyclopropanecarbonyl)azetidin-3-yl)methyl)-1H-imidazol-5(4H)-one]	7.12	7.06	–	–

Continued, in another order:

Human FASN pIC50 [1]	FASN Keto-reductase Domain pIC50 [2]	IC50 (A2780 ovarian cells [5])	Compound	other results
7.48	7.28	> 10000 nM	CC1(C)N=C(c2ccc(-c3ccc4cc(F)ccc4c3)cc2F)N(C[C@@H]2CCN(C(=O)C3CC3)C2)C1=O [Compound 66, (R)-1-((1-(cyclopropanecarbonyl)pyrrolidin-3-yl)methyl)-2-(2-fluoro-4-(6-fluoronaphthalen-2-yl)phenyl)-4,4-dimethyl-1H-imidazol-5(4H)-one]	–
–	–	> 10000 nM	CC1(C)N=C(c2ccc(-c3ccc4cccc(F)c4c3)cc2F)N(C[C@@H]2CCN(C(=O)C3CC3)C2)C1=O [Compound 67, (R)-1-((1-(cyclopropanecarbonyl)pyrrolidin-3-yl)methyl)-2-(2-fluoro-4-(8-fluoronaphthalen-2-yl)phenyl)-4,4-dimethyl-1H-imidazol-5(4H)-one]	–

From patent US9718813B2, “Imidazolin-5-one derivative useful as FASN inhibitors for the treatment of cancer” (Janssen Pharmaceutica, NV, priority 2013, dated 2017)
